We go through 1 substance from patent US20200129525A1, “Method to improve quality of life in non-primate animals by administration of Dehydroepiandrosterone Sulfate (DHEAS) sufficient to achieve primate-specific levels of circulating DHEAS that are not natural to the target species” (priority 2018, published 2020).

Where “and” joins values, the source holds several entries; their conditions need not be identical. Equal values may be shown once.

In this assay the test system is dogs. In words: Study on 60 dogs: owner estimation of playfulness and sociability before and after DHEAS treatment. It counts as in vivo, dog. To be noted: for playfulness and sociability: dogs. Here is the method: Table 1. […] Playfulness was defined as a dog initiating solitary play. Sociability was defined as a dog initiating play with another pet or with its owner. […] Of twenty-six dogs treated the highest doses (25 or 50 mg/kg) eighteen owners reported the changes in their dogs to be dramatic.
Physiological levels of circulating DHEAS in canines are 10 ng/ml (±2 ng/ml) (Frank et al, 2003; Odell & Parker, 1985; Tremblay & Belanger, 1985; Mialot et al, 1988; Mongillo et al, 2014; Rondelli et al, 2015). Our invention employs doses of DHEAS that produce supra-physiologic concentrations of circulating DHEAS at least nine times higher than this, i.e., at least 90 ng/ml, i.e. equivalent to the lower range of primate-specific high levels of circulating DHEAS (FIG. 1). This equates to a minimum treatment dose of 0.009 mg/kg. Our studies reported here were performed with DHEAS administered at ranges from 0.5-50 mg/kg. For all non-primate animals, this invention employs supra-physiologic doses of DHEAS that produce concentrations of circulating DHEAS that are at least ten-fold higher than those found naturally
Thus, in 56 of 60 treated dogs, owners reported observing a very clear improvement in their dog's playfulness and sociability, an observation that in most cases was also remarked upon by visitors to the owner's home. The uniformity of this finding is surprising, because the natural levels of canine DHEAS are quite low, and so this species has never been exposed to such high levels as we report here. Clearly, dogs experience an unmistakable positive response to exogenous DHEAS.
We administered our DHEAS orally, as a liquid, or in capsules. A preferred embodiment of this invention are dosage formulations that mask the bitter flavor of DHEAS from dogs or other pet animals receiving it orally. As an example, Onda et al. (U.S. Pat. No. 4,385,078A) teach methods for providing enteric coatings for solid dosage forms. Tai (U.S. Pat. No. 5,013,557A) teaches taste masking compositions comprising spray dried microcapsules containing sucralfate, and Alkire (U.S. Pat. No. 5,607,697A) and Cherukuri et al (U.S. Pat. No. 5,013,716A) teach the manufacture of taste masking microparticles for oral dosage forms. Patell (U.S. Pat. No. 4,916,161A) teaches the use of taste-masking pharmaceutical agents via wet granulation. In short, many methods are available to produce a formulation that will effectively prevent dogs or other pet animals from experiencing the bitter taste of DHEAS. Very little work has been done using DHEAS as the pharmaceutical ingredient, with most studies utilizing DHEA. For example, US20140235598A1 teaches the manufacture of tablets containing DHEA, but a similar formulation could be rendered with DHEAS.

Regarding Dehydroepiandrosterone sulfate [DHEAS], the “dogs whose owners reported a clear increase in playfulness and/or sociability during the treatment period” value (60 treated dogs, DHEAS oral (liquid or capsules), 0.5-50 mg/kg, owner estimation) was “fifty-six of sixty and 56 of 60”. For the same substance, the playfulness and sociability result is given as “profound increase” (doses of 5 mg/kg and above); “an effect could be observed” (lower dose of 1 mg/kg). Moreover, the “owners who reported the changes in their dogs to be dramatic” value (of twenty-six dogs treated with the highest doses (25 or 50 mg/kg)) is recorded as “eighteen”.
